One compound from US20090047684A1, “Gene and protein expression profiles associated with the therapeutic efficacy of irinotecan” (Nuclea Biomarkers, LLC, priority 2006, published 2009) can be followed below.

For this experiment, the system named is tumor cells derived from patients who were responsive to treatment with irinotecan. Kind of experiment: xenograft of patient-derived tumor cells in SCID mice treated with irinotecan. The format is in vivo. Particulars: SCID mice with established xenograft tumors, injected with 200 mg/kg of irinotecan. The method, then: Positive expression also was evaluated using a xenograft array. SCID mice were injected with tumor cells derived from patients who were responsive to treatment with irinotecan, and the tumors were allowed to grow in the mice. Once the tumors were established, the mice were injected with 200 mg/kg of irinotecan, and the mice were monitored to observe responsiveness to the drug. […] Prior to treatment with the drug, samples of the tumors were extracted from the mice and used to make a TMA.
(In general: Xenograft models place foreign cells or tissue in a host animal.)

Counter-ions that a name gives are not always drawn.

Turning to `CCc1c2c(nc3ccc(OC(=O)N4CCC(N5CCCCC5)CC4)cc13)-c1cc3c(c(=O)n1C2)COC(=O)[C@]3(O)CC` [irinotecan, Irinotecan hydrochloride], the “responsiveness to the drug: effect on tumors formed in the SCID mice” value is recorded as “reduced or eliminated”.
